Experimental findings from patent US6897206B2, “Combinations for the treatment of inflammatory disorders” (CombinatoRx, Inc., priority 2001, dated 2005) are described below.

Assay [1] concerns TNFα secretion. As to the kind of experiment: cells. The conditions noted are these: Homo sapiens, read-out: TNFα inhibition.
Method: (§1) The compound dilution matrix was assayed using a TNFα ELISA method. Briefly, a 100 μl suspension of diluted human peripheral blood mononuclear cells (PBMCs) contained within each well of a polystyrene 384-well plate (NalgeNunc) was stimulated to secrete TNFα by treatment with a final concentration of 10 ng/ml phorbol 12-myristate 13-acetate (Sigma) and 750 ng/μl ionomycin (Sigma). Various concentrations of each test compound were added at the time of stimulation. After 16-18 hours of incubation at 37° C. in a humidified incubator, the plate was centrifuged and the supernatant transferred to a white opaque polystyrene 384 well plate (NalgeNunc, Maxisorb) coated with an anti-TNF antibody (PharMingen, #18631 D). After a two-hour incubation, the plate was washed (Tecan PowerWasher 384) with phosphate buffered saline (PBS) containing 0.1% Tween 20 (polyoxyethylene sorbitan monolaurate) and incubated for an additional one hour with another anti-TNF antibody that was biotin labeled (PharMingen, 18642D) and horseradish peroxidase (HRP) coupled to strepavidin (PharMingen, #13047E). After the plate was washed with 0.1% Tween 20/PBS, the HRP substrate (which contains luminol, hydrogen peroxide, and an enhancer such as para-iodophenol) was added to each well and light intensity measured using a LJL Analyst luminometer. Control wells contained a final concentration of 1 μg/ml cyclosporin A (Sigma).
Assay [2] deals with TNFα secretion. As to the kind of experiment: TNFα ELISA; suppression of TNFα secretion from phorbol 12-myristate 13-acetate and ionomycin stimulated PBMCs/blood. The conditions noted are these: Homo sapiens, PBMC; for inhibition at 0.05 µM: amoxapine 0.050 μM alone (prednisolone 0.000 μM); for inhibition at 0.199 µM: amoxapine 0.199 μM alone (prednisolone 0.000 μM); for inhibition at 0.797 µM: amoxapine 0.797 μM alone (prednisolone 0.000 μM); for inhibition at 0.004 µM: prednisolone 0.004 μM alone (amoxapine 0.000 μM); for inhibition at 0.017 µM: prednisolone 0.017 μM alone (amoxapine 0.000 μM); for inhibition at 0.069 µM: prednisolone 0.069 μM alone (amoxapine 0.000 μM); for inhibition at 0.277 µM: prednisolone 0.277 μM alone (amoxapine 0.000 μM). A general note: ELISA stands for enzyme-linked immunosorbent assay.
Method: Stock solutions of amoxapine (16 mg/ml) (Sigma-Aldrich, St. Louis, Mo.; catalog number A129) and prednisolone (1.6 mg/ml) (Sigma-Aldrich, catalog number P6004) were made in dimethylsulfoxide (DMSO). The amoxapine master plates were made by adding 25 μl of the concentrated stock solution to columns 3, 9, and 15 (rows C through N) of a polypropylene 384-well storage plate that had been pre-filled with 75 μl of anhydrous DMSO. Using a TomTec Quadra Plus liquid handler, the 25 μl of amoxapine stock solution was serially diluted two-fold four times into the adjacent columns (columns 4-7, 10-13, 16-19). […] The prednisolone master plates were made by adding 25 μl of the concentrated prednisolone stock solution to the appropriate wells (row C, columns 3-8; row C, columns 9-14; row C, columns 15-20; row I, columns 3-8; row I, columns 9-14; row I, columns 15-20) of the appropriate prednisolone master polypropylene 384-well storage plate. These master plates had been pre-filled with 75 μl of anhydrous DMSO. Using the TomTec Quadra Plus liquid handler, the 25 μl was serially diluted two-fold four times in the adjacent rows (rows D-G, and J-M). […] Master plates were sealed and stored at −20 C until ready for use.
The final amoxapine/prednisolone combination plate was generated by transferring 1 μl from each of the amoxapine and prednisolone master plates to a dilution plate containing 100 μl of media (RPMI; Gibco BRL, #11875-085), 10% Fetal Bovine Serum (Gibco BRL, #25140-097), 2% Penicillin/Streptomycin (Gibco BRL, #15140-122)) using the TomTec Quadra Plus liquid handler. This dilution plate was then mixed and a 10 μl aliquot transferred to the final assay plate, which had been pre-filled with 40 μl/well RPMI media containing the appropriate stimulant to activate TNFα secretion (see below).
as §1

Setting [3] is: read-out: TNFα inhibition, Table 1.
Setting [4] is: read-out: TNFα inhibition, Table 2.

As to `Clc1ccc2c(c1)C(N1CCNCC1)=Nc1ccccc1O2` [Amoxapine, 2-cloro-11(1-piperazinyl)dibenz[b,f][1,4]oxapine], in assay [1], the inhibition at 0.05 µM was determined as 3%, the inhibition at 0.1 µM came out at 5.52%, the inhibition at 0.199 µM was determined as 2.39% and the inhibition at 0.398 µM came to 8.1%. In addition, in assay [1], the inhibition at 0.797 µM is 13.1%, the inhibition at 1.593 µM was found to be 16.8%, the inhibition at 3.187 µM came out at 24.2% and the inhibition at 6.373 µM turned out to be 21.3%. Further, the inhibition at 12.747 µM in assay [1] was 49.6%. Besides, the inhibition at 0.4 µM in assay [2] (read-out: TNFα inhibition activity, follow-up secondary screen, amoxapine alone at 400 nM) was 16%. Also, in assay [2] (setting [3]), the inhibition at 0.05 µM is 7.3%, the inhibition at 0.199 µM amounted to 16.7% and the inhibition at 0.797 µM came out at 24.3%. For the same molecule, the inhibition at 3.188 µM in assay [2] (read-out: TNFα inhibition, Table 1, amoxapine 3.188 μM alone (prednisolone 0.000 μM)) came to 50.4%. Further, the inhibition at 12.75 µM in assay [2] (read-out: TNFα inhibition, Table 1, amoxapine 12.750 μM alone (prednisolone 0.000 μM)) turned out to be 73%. In assay [2] (setting [4]), the inhibition at 0.05 µM was -3.31%, the inhibition at 0.199 µM came out at 14.2% and the inhibition at 0.797 µM stood at 21.9%. Also, the inhibition at 0.1 µM in assay [2] (read-out: TNFα inhibition, Table 2, amoxapine 0.100 μM alone (prednisolone 0.000 μM)) amounted to 3.6%. Moreover, the inhibition at 0.398 µM in assay [2] (read-out: TNFα inhibition, Table 2, amoxapine 0.398 μM alone (prednisolone 0.000 μM)) amounted to 16.4%. Moreover, the inhibition at 1.593 µM in assay [2] (read-out: TNFα inhibition, Table 2, amoxapine 1.593 μM alone (prednisolone 0.000 μM)) was 37.1%. Besides, the inhibition at 3.187 µM in assay [2] (read-out: TNFα inhibition, Table 2, amoxapine 3.187 μM alone (prednisolone 0.000 μM)) was 48%. For the same molecule, the inhibition at 6.373 µM in assay [2] (read-out: TNFα inhibition, Table 2, amoxapine 6.373 μM alone (prednisolone 0.000 μM)) amounted to 64.4%. In addition, the inhibition at 12.747 µM in assay [2] (read-out: TNFα inhibition, Table 2, amoxapine 12.747 μM alone (prednisolone 0.000 μM)) was determined as 80.9%.
As to `C[C@]12C=CC(=O)C=C1CC[C@@H]1[C@@H]2[C@@H](O)C[C@@]2(C)[C@H]1CC[C@]2(O)C(=O)CO` [Prednisolone, 1,4-pregnadiene-11beta, 17alpha,21-triol-3,20-dione], the values for the inhibition at 0.004 µM in assay [1], in assay [2] (setting [3]) and in assay [2] (setting [4]) were 12.1%, 2.69% and 9.62%, respectively. Besides, the inhibition at 0.009 µM turned out to be 30.2% in assay [1]; 14% in assay [2] (read-out: TNFα inhibition activity, follow-up secondary screen, prednisolone alone at 9 nM); 14.3% in assay [2] (read-out: TNFα inhibition, Table 2, prednisolone 0.009 μM alone (amoxapine 0.000 μM)). The inhibition at 0.017 µM in assay [1] was 37.1%; in assay [2] (setting [3]), 19.1%; in assay [2] (setting [4]) it was 24.7%. Also, the inhibition at 0.035 µM in assay [1] was determined as 33.1%; in assay [2] (read-out: TNFα inhibition, Table 2, prednisolone 0.035 μM alone (amoxapine 0.000 μM)) it was 24.1%. The values for the inhibition at 0.069 µM in assay [1], in assay [2] (setting [3]) and in assay [2] (setting [4]) were 38.8%, 22.3% and 24.6%, respectively. Besides, the inhibition at 0.139 µM in assay [1] amounted to 48.5%; in assay [2] (read-out: TNFα inhibition, Table 2, prednisolone 0.139 μM alone (amoxapine 0.000 μM)), 25.7%. Besides, the inhibition at 0.277 µM in assay [1] was 48.8%; in assay [2] (setting [3]) it was 26.8%; in assay [2] (setting [4]) it was 36.9%. Further, the inhibition at 1.11 µM in assay [1] was found to be 60.1%; in assay [2] (read-out: TNFα inhibition, Table 1, prednisolone 1.110 μM alone (amoxapine 0.000 μM)), 27.6%; in assay [2] (read-out: TNFα inhibition, Table 2, prednisolone 1.110 μM alone (amoxapine 0.000 μM)), 34.6%; in assay [2] (read-out: TNFα inhibition, follow-up secondary screen, 1110 nM prednisolone alone), 35%; in assay [2] (read-out: inhibit TNFα secretion, prednisolone alone at 1.11 μM) it was 28%.
